Experimental data: ChEMBL document CHEMBL4699616, “Novel deoxyvasicinone and tetrahydro-beta-carboline hybrids as inhibitors of acetylcholinesterase and amyloid beta aggregation” (Bioorg Med Chem Lett, 2020)
Active and inactive are the calls of the source. No cut-off for these calls is given here.

How the values were obtained:
[1] = target: T1, Cholinesterase (Homo sapiens, UniProt P06276)
Description: Inhibition of human serum BuChe by Ellman's method

[2] = target: T2, Acetylcholinesterase (Homo sapiens, UniProt P22303); test: Inhibition of human erythrocytes AChE by Ellman's method; format: cell-based, Erythrocyte
T2 sequence (P22303 whole entry): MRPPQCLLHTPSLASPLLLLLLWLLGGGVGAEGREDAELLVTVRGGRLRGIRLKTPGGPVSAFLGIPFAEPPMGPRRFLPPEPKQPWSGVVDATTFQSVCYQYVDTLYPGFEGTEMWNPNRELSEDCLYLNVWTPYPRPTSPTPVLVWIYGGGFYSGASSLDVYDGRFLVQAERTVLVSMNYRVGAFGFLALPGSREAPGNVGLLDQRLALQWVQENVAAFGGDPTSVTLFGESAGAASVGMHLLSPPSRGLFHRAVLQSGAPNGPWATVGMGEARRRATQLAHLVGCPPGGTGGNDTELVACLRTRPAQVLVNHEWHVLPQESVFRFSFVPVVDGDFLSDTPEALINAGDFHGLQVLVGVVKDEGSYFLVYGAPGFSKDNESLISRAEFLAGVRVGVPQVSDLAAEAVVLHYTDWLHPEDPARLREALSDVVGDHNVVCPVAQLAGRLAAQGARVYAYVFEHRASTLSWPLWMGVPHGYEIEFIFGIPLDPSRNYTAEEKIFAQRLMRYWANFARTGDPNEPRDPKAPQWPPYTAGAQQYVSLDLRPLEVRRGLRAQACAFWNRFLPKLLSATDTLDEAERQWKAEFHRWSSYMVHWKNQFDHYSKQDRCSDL

[3] = target: T3, Amyloid-beta precursor protein (Homo sapiens, UniProt P05067)
T3 sequence (P05067 whole entry): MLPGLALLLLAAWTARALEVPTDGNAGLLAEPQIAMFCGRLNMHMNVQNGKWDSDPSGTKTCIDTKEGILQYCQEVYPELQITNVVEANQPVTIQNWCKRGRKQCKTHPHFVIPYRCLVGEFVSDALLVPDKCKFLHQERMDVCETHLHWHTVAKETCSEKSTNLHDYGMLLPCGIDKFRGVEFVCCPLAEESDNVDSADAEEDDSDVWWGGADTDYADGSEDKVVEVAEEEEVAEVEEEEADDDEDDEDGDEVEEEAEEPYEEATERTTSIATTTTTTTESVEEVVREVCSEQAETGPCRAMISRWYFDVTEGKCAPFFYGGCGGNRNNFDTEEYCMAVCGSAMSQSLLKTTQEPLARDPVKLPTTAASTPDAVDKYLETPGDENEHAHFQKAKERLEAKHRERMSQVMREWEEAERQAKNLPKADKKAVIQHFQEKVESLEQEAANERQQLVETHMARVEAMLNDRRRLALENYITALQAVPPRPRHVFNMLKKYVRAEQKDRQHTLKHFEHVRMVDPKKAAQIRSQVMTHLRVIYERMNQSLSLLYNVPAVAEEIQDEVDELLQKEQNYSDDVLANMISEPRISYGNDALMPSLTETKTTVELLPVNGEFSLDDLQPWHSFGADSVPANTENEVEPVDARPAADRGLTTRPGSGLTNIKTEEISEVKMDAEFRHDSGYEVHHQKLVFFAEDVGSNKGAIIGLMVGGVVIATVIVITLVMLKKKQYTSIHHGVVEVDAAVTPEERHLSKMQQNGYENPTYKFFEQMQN
Description: Inhibition of amyloid beta (1 to 42) (unknown origin) self aggregation incubated for 48 hrs by thioflavin-T fluorescence method

[4] = target: T3, Amyloid-beta precursor protein; test: Inhibition of amyloid beta (1 to 42) (unknown origin) self aggregation at 20 uM incubated for 48 hrs by thioflavin-T fluorescence method relative to control
[5] = target: T2, Acetylcholinesterase; test: Inhibition of human erythrocytes AChE at 1 uM by Ellman's method relative to control; format: cell-based; details: Erythrocyte
[6] = tested on: SH-SY5Y; test: Neuroprotective activity against amyloid beta (1 to 42) induced cell damage in human SH-SY5Y cells assessed as increase in cell viability at 1 to 10 uM measured after 48 hrs; format: functional, cell-based; details: dose microM 1-10, time 48.0 hrs
[7] = Cytotoxicity against human SH-SY5Y cells assessed as cell viability at 10 uM after 48 hrs by MTT assay relative to control; format: cell-based; details: read-out: Activity
[8] = tested on: SH-SY5Y; test: Cytotoxicity against human SH-SY5Y cells assessed as effect on cell viability at 0.1 uM after 48 hrs by MTT assay; format: cell-based
[9] = tested on: SH-SY5Y; test: Neuroprotective activity against amyloid beta (1 to 42) induced cell damage in human SH-SY5Y cells assessed as increase in cell viability at 0.1 uM measured after 48 hrs; format: functional, cell-based
[10] = tested on: SH-SY5Y; test: Cytotoxicity against human SH-SY5Y cells assessed as effect on cell viability at 0.1 to 1 uM after 48 hrs by MTT assay; format: cell-based; details: dose 0.1-1 µM
[11] = target: T3, Amyloid-beta precursor protein; test: Potency index, ratio of resveratrol IC50 to test compound IC50 for inhibition of amyloid beta (1 to 42) (unknown origin) self aggregation
[12] = target: T1, Cholinesterase; test: Inhibition of human serum BuChe at 1 uM by Ellman's method relative to control; format: cell-free
[13] = target: T2, Acetylcholinesterase; test: Inhibition of human erythrocytes AChE using acetylthiocholine iodide as substrate preincubated for 4.5 mins followed by substrate addition measured after 2.5 mins by Ellman's method; design: species or system Erythrocyte

T1 sequence (P06276 whole entry): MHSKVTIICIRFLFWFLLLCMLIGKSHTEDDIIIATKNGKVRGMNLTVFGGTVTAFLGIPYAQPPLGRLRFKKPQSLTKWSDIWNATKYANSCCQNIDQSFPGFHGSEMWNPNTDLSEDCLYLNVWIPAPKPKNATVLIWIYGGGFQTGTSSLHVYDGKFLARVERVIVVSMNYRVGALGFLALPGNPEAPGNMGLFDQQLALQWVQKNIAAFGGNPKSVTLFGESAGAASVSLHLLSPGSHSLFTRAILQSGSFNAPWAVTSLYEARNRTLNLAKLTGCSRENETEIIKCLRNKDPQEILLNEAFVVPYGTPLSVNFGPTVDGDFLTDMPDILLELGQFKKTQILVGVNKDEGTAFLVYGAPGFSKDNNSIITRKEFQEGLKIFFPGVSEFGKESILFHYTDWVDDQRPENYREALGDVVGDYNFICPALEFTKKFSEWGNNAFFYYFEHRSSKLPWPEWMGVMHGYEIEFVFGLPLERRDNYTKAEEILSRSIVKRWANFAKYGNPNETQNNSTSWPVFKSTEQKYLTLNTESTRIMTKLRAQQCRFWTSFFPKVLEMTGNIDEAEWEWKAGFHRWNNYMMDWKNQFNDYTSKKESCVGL

Row | SMILES | IC50 [1] [nM] | IC50 [2] [nM] | IC50 [3] [nM] | inhibition [4] [%] | inhibition [5] [%] | other results
1 | O=C(CCCCCN1CCC2c3ccccc3NC2C1)Oc1ccc(/C=C2\CCn3c2nc2ccccc2c3=O)cc1 (stereo not given) | 507 | 10.7 | 15100 |  |  | 
2 | O=C(CN1CCC2c3ccccc3NC2C1)Nc1ccc(/C=C2\CCn3c2nc2ccccc2c3=O)cc1 (stereo not given) | 596 |  |  | 37.5 | 21.6 | 
3 | O=C(CCN1CCC2c3ccccc3NC2C1)Nc1ccc(/C=C2\CCn3c2nc2ccccc2c3=O)cc1 (stereo not given) | 726 | 9.75 |  | 31.6 |  | 
4 | O=C(CCN1CCC2c3ccccc3NC2C1)Oc1ccc(/C=C2\CCn3c2nc2ccccc2c3=O)cc1 (stereo not given) | 69.2 | 0.93 | 19700 |  |  | Activity [6]: Active; viability at 48 h, 10 µM [7]: > 76%; Activity [8]: Non-Toxic
5 | O=C(CCCN1CCC2c3ccccc3NC2C1)Oc1ccc(/C=C2\CCn3c2nc2ccccc2c3=O)cc1 (stereo not given) | 44.1 | 16.5 |  | 41.5 |  | 
6 | O=C(CN1CCC2c3ccccc3NC2C1)Oc1ccc(/C=C2\CCn3c2nc2ccccc2c3=O)cc1 (stereo not given) | 238 | 216 |  | 38.8 |  | 
7 | O=C(CCCCN1CCC2c3ccccc3NC2C1)Nc1ccc(/C=C2\CCn3c2nc2ccccc2c3=O)cc1 (stereo not given) | 32.8 | 98.3 |  | 27.9 |  | 
8 | O=C(CCCCCN1CCC2c3ccccc3NC2C1)Nc1ccc(/C=C2\CCn3c2nc2ccccc2c3=O)cc1 (stereo not given) | 486 | 153 | 18300 |  |  | 
9 | O=C(CCCCN1CCC2c3ccccc3NC2C1)Oc1ccc(/C=C2\CCn3c2nc2ccccc2c3=O)cc1 (stereo not given) | 422 | 1.08 | 2050 |  |  | Activity [9]: Active; Activity [10]: Non-Toxic; Activity [6]: Active; viability at 48 h, 10 µM [7]: > 76%; Ratio IC50 [11]: 6
10 | O=c1c2ccccc2nc2n1CCC2 |  |  |  | 20.7 | 29.7 | inhibition [12]: 40.5%
11 | O=C(O)C1NCCC2c3ccccc3NC12 (stereo not given) |  |  |  | 20.7 | 29.7 | inhibition [12]: 40.5%
12 | O=c1c2cc(OCCCN3CCCCC3)ccc2nc2n1CCC2 |  |  |  |  |  | IC50 [13]: 50 nM
13 | O=C(CCCN1CCC2c3ccccc3NC2C1)Nc1ccc(/C=C2\CCn3c2nc2ccccc2c3=O)cc1 (stereo not given) | 215 |  |  | 21.2 | 49.9 | 
